Usually IC50 stands for the concentration at which inhibition is half-maximal.

Molecules are shown by their SMILES. Bounds are passed on as bounds.

In one test the target is T1, GCS (Canis lupus familiaris, UniProt A0A8I3MXG6).
T1 sequence (A0A8I3MXG6 1-394): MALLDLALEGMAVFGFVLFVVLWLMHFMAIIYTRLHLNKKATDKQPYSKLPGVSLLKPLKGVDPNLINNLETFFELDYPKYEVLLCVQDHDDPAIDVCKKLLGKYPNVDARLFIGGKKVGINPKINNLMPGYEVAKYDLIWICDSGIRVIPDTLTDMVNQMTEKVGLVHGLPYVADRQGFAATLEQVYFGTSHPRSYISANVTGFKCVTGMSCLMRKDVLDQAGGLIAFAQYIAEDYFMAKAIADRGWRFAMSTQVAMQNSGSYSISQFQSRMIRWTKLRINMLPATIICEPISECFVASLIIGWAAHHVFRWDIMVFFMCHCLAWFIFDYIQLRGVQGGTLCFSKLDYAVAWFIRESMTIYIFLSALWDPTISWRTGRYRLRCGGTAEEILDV
The experiment in a line: Assay 1: GCS Enzymatic Assay (MDCK cell lysate, C6-NBD-Ceramide, LC/MS). Format: biochemical, canine. As to conditions: Table 2; data marked by *. The method in brief:
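LC/MS/MS measurement of glucosylceramide and NBD-ceramide after a 1 h, 37 °C reaction with 100 μM UDP-glucose and 10 μM C6-NBD-ceramide gave IC50s or percent inhibition.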
Regarding `CC1(C)CCc2cc([C@@H](O)[C@@H](CN3CCCC3)NC(=O)C(F)(F)c3cc4cc(Cl)ccc4o3)ccc2O1` [Compound 119, 2-(5-chlorobenzofuran-2-yl)-N-((1R,2R)-1-(2,2-dimethylchroman-6-yl)-1-hydroxy-3-(pyrrolidin-1-yl)propan-2-yl)-2,2-difluoroacetamide], the “% inhibition generated from Assay 1” value was “A* (the compound had a % inhibition of a percent inhibition of greater than or equal to about 50%)”.

Take `O=C(N[C@H](CN1CCCC1)[C@H](O)c1ccc(OC2CC2)nc1)C(F)(F)CCc1ccc2ccccc2c1` [Compound 120, N-((1R,2R)-1-(6-cyclopropoxypyridin-3-yl)-1-hydroxy-3-(pyrrolidin-1-yl)propan-2-yl)-2,2-difluoro-4-(naphthalen-2-yl)butanamide]: the “% inhibition generated from Assay 1” value is on record as “A* (the compound had a % inhibition of a percent inhibition of greater than or equal to about 50%)”.

With `CN1CCC(Oc2ccc([C@@H](O)[C@@H](CN3CCCC3)NC(=O)C(F)(F)CCc3ccc4ccccc4c3)cc2Cl)CC1` [Compound 121, N-((1R,2R)-1-(3-chloro-4-((l-methylpiperidin-4-yl)oxy)phenyl)-1-hydroxy-3-(pyrrolidin-1-yl)propan-2-yl)-2,2-difluoro-4-(naphthalen-2-yl)butanamide], the “% inhibition generated from Assay 1” value is listed as “B* (the compound had a % inhibition of greater than or equal to about 3% but less than about 50%)”.

With `O=C(N[C@H](CN1CCC1)[C@H](O)c1ccc(OC2CC2)c(Cl)c1)C(=O)c1cc2cc(Cl)ccc2o1` [Compound 122, N-((1R,2R)-3-(azetidin-1-yl)-1-(3-chloro-4-cyclopropoxyphenyl)-1-hydroxypropan-2-yl)-2-(5-chlorobenzofuran-2-yl)-2-oxoacetamide], the “% inhibition generated from Assay 1” value is given as “A* (the compound had a % inhibition of a percent inhibition of greater than or equal to about 50%)”.

Take `CN1CCC(Oc2ccc([C@@H](O)[C@@H](CN3CCCC3)NC(=O)C(F)(F)c3cc4cc(Cl)ccc4o3)cc2Cl)CC1` [Compound 123, N-((1R,2R)-1-(3-chloro-4-((l-methylpiperidin-4-yl)oxy)phenyl)-1-hydroxy-3-(pyrrolidin-1-yl)propan-2-yl)-2-(5-chlorobenzofuran-2-yl)-2,2-difluoroacetamide]: the “% inhibition generated from Assay 1” value is “A* (the compound had a % inhibition of a percent inhibition of greater than or equal to about 50%)”.

On to `O=C(N[C@H](CN1CCCC1)[C@H](O)c1ccc(OCCN2CCC2)c(Cl)c1)C(F)(F)CCc1ccc2ccccc2c1` [Compound 131, N-((1R,2R)-1-(4-(2-(azetidin-1-yl)ethoxy)-3-chlorophenyl)-1-hydroxy-3-(pyrrolidin-1-yl)propan-2-yl)-2,2-difluoro-4-(naphthalen-2-yl)butanamide], for which the “% inhibition generated from Assay 1” value is “A* (the compound had a % inhibition of a percent inhibition of greater than or equal to about 50%)”.

In the case of `O=C(N[C@H](CN1CCC1)[C@H](O)c1ccc(OC2CC2)c(Cl)c1)C(F)(F)CCc1ccc2cc(F)ccc2c1` [Compound 134, N-((1R,2R)-3-(azetidin-1-yl)-1-(3-chloro-4-cyclopropoxyphenyl)-1-hydroxypropan-2-yl)-2,2-difluoro-4-(6-fluoronaphthalen-2-yl)butanamide], the “% inhibition generated from Assay 1” value is listed as “A* (the compound had a % inhibition of a percent inhibition of greater than or equal to about 50%)”.

In the case of `O=C(N[C@H](CN1CCC1)[C@H](O)c1ccc(OC2CC2)c(Cl)c1)/C(CCc1ccc2cc(F)ccc2c1)=N/O` [Compound 137, (E)-N-((1R,2R)-3-(azetidin-1-yl)-1-(3-chloro-4-cyclopropoxyphenyl)-1-hydroxypropan-2-yl)-4-(6-fluoronaphthalen-2-yl)-2-(hydroxyimino)butanamide], the “% inhibition generated from Assay 1” value was “B* (the compound had a % inhibition of greater than or equal to about 3% but less than about 50%)”.

As to `O=C(N[C@H](CN1CCCC1)[C@H](O)c1ccc(OC2CC2)c(Cl)c1)C(F)(F)c1ccc2cc(Cl)ccc2c1` [Compound 139, N-((1R,2R)-1-(3-chloro-4-cyclopropoxyphenyl)-1-hydroxy-3-(pyrrolidin-1-yl)propan-2-yl)-2-(6-chloronaphthalen-2-yl)-2,2-difluoroacetamide], the “% inhibition generated from Assay 1” value is “A* (the compound had a % inhibition of a percent inhibition of greater than or equal to about 50%)”.

The test is the same for the next values; noted with them: Table 2; data without asterisk; read-out: IC50 (nM) generated from Assay 1.
As to `O=C(N[C@H](CN1CCCC1)[C@H](O)c1ccc(OC2CCOCC2)c(Cl)c1)C(F)(F)C1Cc2ccc(Cl)cc2C1` (stereo partly drawn) [Compound 116, 2-(5-chloro-2,3-dihydro-1H-inden-2-yl)-N-((1R,2R)-1-(3-chloro-4-((tetrahydro-2H-pyran-4-yl)oxy)phenyl)-1-hydroxy-3-(pyrrolidin-1-yl)propan-2-yl)-2,2-difluoroacetamide], the IC50 was < 50 nM.

For `O=C(N[C@H](CN1CCC1)[C@H](O)c1cc(F)c2c(c1)OCCO2)/C(CCc1ccc2cc(F)ccc2c1)=N/O` [Compound 118, (E)-N-((1R,2R)-3-(azetidin-1-yl)-1-(8-fluoro-2,3-dihydrobenzo[b][1,4]dioxin-6-yl)-1-hydroxypropan-2-yl)-4-(6-fluoronaphthalen-2-yl)-2-(hydroxyimino)butanamide], the IC50 fell in the range of 50 to 5000 nM.

Take `O=C(N[C@H](CN1CCCC1)[C@H](O)c1ccc(OC2CC2)c(F)c1)C(F)(F)CCc1ccc2ccccc2c1` [Compound 125, N-((1R,2R)-1-(4-cyclopropoxy-3-fluorophenyl)-1-hydroxy-3-(pyrrolidin-1-yl)propan-2-yl)-2,2-difluoro-4-(naphthalen-2-yl)butanamide]: the IC50 is < 50 nM.

As to `O=C(N[C@H](CN1CCCC1)[C@H](O)c1ccc(OC2CC2)c(F)c1)C(F)(F)c1cc2cc(Cl)ccc2o1` [Compound 126, 2-(5-chlorobenzofuran-2-yl)-N-((1R,2R)-1-(4-cyclopropoxy-3-fluorophenyl)-1-hydroxy-3-(pyrrolidin-1-yl)propan-2-yl)-2,2-difluoroacetamide], the IC50 was < 50 nM.

For the compound `O=C(N[C@H](CN1CCCC1)[C@H](O)c1ccc(N2CCOCC2)c(Cl)c1)C(F)(F)c1cc2cc(Cl)ccc2o1` [Compound 127, N-((1R,2R)-1-(3-chloro-4-morpholinophenyl)-1-hydroxy-3-(pyrrolidin-1-yl)propan-2-yl)-2-(5-chlorobenzofuran-2-yl)-2,2-difluoroacetamide], the IC50 was in the range of 50 to 5000 nM.

For the compound `O=C(N[C@H](CN1CCCC1)[C@H](O)c1ccc(OCCN2CCC2)c(Cl)c1)C(F)(F)c1cc2cc(Cl)ccc2o1` [Compound 128, N-((1R,2R)-1-(4-(2-(azetidin-1-yl)ethoxy)-3-chlorophenyl)-1-hydroxy-3-(pyrrolidin-1-yl)propan-2-yl)-2-(5-chlorobenzofuran-2-yl)-2,2-difluoroacetamide], the IC50 was < 50 nM.

Turning to `O=C(N[C@H](CN1CCCC1)[C@H](O)c1ccc(OC2COC2)c(Cl)c1)C(F)(F)CCc1ccc2ccccc2c1` [Compound 129, N-((1R,2R)-1-(3-chloro-4-(oxetan-3-yloxy)phenyl)-1-hydroxy-3-(pyrrolidin-1-yl)propan-2-yl)-2,2-difluoro-4-(naphthalen-2-yl)butanamide], the IC50 is < 50 nM.

On to `O=C(N[C@H](CN1CCCC1)[C@H](O)c1ccc(OC2COC2)c(Cl)c1)C(F)(F)c1cc2cc(Cl)ccc2o1` [Compound 130, N-((1R,2R)-1-(3-chloro-4-(oxetan-3-yloxy)phenyl)-1-hydroxy-3-(pyrrolidin-1-yl)propan-2-yl)-2-(5-chlorobenzofuran-2-yl)-2,2-difluoroacetamide], for which the IC50 was < 50 nM.

On to `O=C(N[C@H](CN1CCCC1)[C@H](O)c1ccc2c(c1)OCCO2)C(F)(F)c1ccc2cc(Cl)ccc2c1` [Compound 132, 2-(6-chloronaphthalen-2-yl)-N-((1R,2R)-1-(2,3-dihydrobenzo[b][1,4]dioxin-6-yl)-1-hydroxy-3-(pyrrolidin-1-yl)propan-2-yl)-2,2-difluoroacetamide], for which the IC50 was < 50 nM.

Turning to `O=C(N[C@H](CN1CCCC1)[C@H](O)c1cc(F)c2c(c1)OCCO2)C(=O)c1ccc(-c2ccc(F)cc2)cc1` [Compound 133, N-((1R,2R)-1-(8-fluoro-2,3-dihydrobenzo[b][1,4]dioxin-6-yl)-1-hydroxy-3-(pyrrolidin-1-yl)propan-2-yl)-2-(4′-fluoro-[1,1′-biphenyl]-4-yl)-2-oxoacetamide], the IC50 was < 50 nM.

Take `O=C(N[C@H](CN1CCCC1)[C@H](O)c1cc(F)c2c(c1)OCCO2)C(F)(F)c1ccc2cc(Cl)ccc2c1` [Compound 135, 2-(6-chloronaphthalen-2-yl)-2,2-difluoro-N-((1R,2R)-1-(8-fluoro-2,3-dihydrobenzo[b][1,4]dioxin-6-yl)-1-hydroxy-3-(pyrrolidin-1-yl)propan-2-yl)acetamide]: the IC50 is < 50 nM.

For `O=C(N[C@H](CN1CCCC1)[C@H](O)c1ccc(OC2CC2)c(Cl)c1)/C(=N/O)c1cc2cc(Cl)ccc2o1` [Compound 136, (E)-N-((1R,2R)-1-(3-chloro-4-cyclopropoxyphenyl)-1-hydroxy-3-(pyrrolidin-1-yl)propan-2-yl)-2-(5-chlorobenzofuran-2-yl)-2-(hydroxyimino)acetamide], the half-inhibitory concentration (IC50) is < 50 nM.

For the compound `O=C(N[C@H](CN1CCCC1)[C@H](O)c1cc(F)c2c(c1)OCCO2)/C(=N/O)c1ccc(-c2ccc(F)cc2)cc1` [Compound 138, (E)-N-((1R,2R)-1-(8-fluoro-2,3-dihydrobenzo[b][1,4]dioxin-6-yl)-1-hydroxy-3-(pyrrolidin-1-yl)propan-2-yl)-2-(4′-fluoro-[1,1′-biphenyl]-4-yl)-2-(hydroxyimino)acetamide], the IC50 is < 50 nM.

The record behind these values is patent US10227323B2, “Glucosylceramide synthase inhibitors for the treatment of diseases” (BIOMARIN PHARMACEUTICAL INC., priority 2013, dated 2019).
